Assay results from US20100179324A1, “ANTI-TUMOR AGENT COMPRISING SULPHOSTIN OR SULPHOSTIN-RELATED COMPOUND AS THE ACTIVE INGREDIENT” (Microbial Chemistry Research Foundation, priority 2007, published 2010).

Tests used:
[1] = system: Colon26 colorectal cancer cells; assay: Anti-tumor effect on Colon26 (Experimental Example 1), transplanted mice; type: in vivo; settings: for suppression rate: tumor weight Day 28 vs control group
Experimental: (§1) Also, in the Examples, the “suppression rate” was calculated using the following formula.
(§2) Suppression rate (%)=(1−tumor weight in the administration group/tumor weight in the control group)×100
(§3) Six-week-old BALB/cAnNCrj female mice were used for this test. The following six groups were provided: Group 1 in which physiological saline (solvent) was administered; Group 2 in which sulphostin was administered at a dose of 200 mg/kg; Group 3 in which sulphostin was administered at a dose of 50 mg/kg; Group 4 in which PT-100 was administered at a dose of 200 mg/kg; Group 5 in which PT-100 was administered at a dose of 50 mg/kg; and Group 6 in which Furtulon was administered at a dose of 30 mg/kg. The number of animals was set to eight in Group 1 (control group) and to six in each of Groups 2 to 6 (drug administration groups).
(§4) On Day 0, 2×10^5 Colon26 colorectal cancer cells were transplanted into the groin of the mice. Each of sulphostin and PT-100 was intraperitoneally administered to the mice at the above dose once in a day on Days 1 to 6, 8 to 13, 15 to 20 and 22 to 27. Furtulon was orally administered following a similar administration schedule. In use, sulphostin and PT-100 were each diluted with physiological saline to have an intended concentration; and Furtulon was suspended in 0.5% sodium carboxymethyl cellulose and then diluted with physiological saline to have an intended concentration. On Day 28, the tumor was taken out from each mouse and weighed, to thereby determine the effect of each drug. In addition, the presence or absence of side effects of each drug was confirmed by monitoring a change in body weight of the mouse in the course of the treatment and observing the degree of hair loss in the mouse after administration.

[2] = system: Colon26 colorectal cancer cells; assay: Anti-tumor effect on advanced Colon26 (Experimental Example 2), drug from Day 10; type: in vivo, mouse
Experimental: as §1, §2
as §3, with “of 50” for “of 200”, “of 3.1” for “of 50”, “to seven” for “to eight”, “to five” for “to six”
as §4, with “mice. Administration of each drug was initiated from Day 10 when the transplanted cancer cells were thought to grow.” for “mice.”, “Days 10” for “Days 1”, “to 18 and 20” for “to 6, 8”, “to 25.” for “to 13, 15 to 20 and 22 to 27.”, “mouse” for “mouse in the course of the treatment”, “mouse in the course of the treatment.” for “mouse after administration.”

[3] = Toxicity test on mouse (Experimental Example 4); type: in vivo; settings: i.p. twice a day for 10 days; for Heart weight (Avg.) / Left kidney weight (Avg.) / Liver weight (Avg.) / Lung weight (Avg.) / Right kidney weight (Avg.) / Spleen weight (Avg.) / Thymus weight (Avg.): dissected Day 19; for change in body weight: normal mice
Experimental: Four-week-old female ICR mice (Crj: CD-1) were used for this test. The following six groups were provided: Group 1 in which physiological saline (solvent) was administered; Group 2 in which sulphostin was administered at a dose of 50 mg/kg; Group 3 in which sulphostin was administered at a dose of 25 mg/kg; Group 4 in which PT-100 was administered at a dose of 50 mg/kg; Group 5 in which PT-100 was administered at a dose of 25 mg/kg; Group 6 in which PT-100 was administered at a dose of 12.5 mg/kg; and Group 7 in which PT-100 was administered at a dose of 6.3 mg/kg. Note that each of the above doses is a dose for each administration. The number of animals was set to three in each of the groups. Each drug was intraperitoneally administered to each mouse twice in a day for 10 consecutive days, and the mouse was weighed at an appropriate time and monitored over time. On Day 19 after initiation of administration, each mouse was dissected under anesthesia and examined for remarks.

EL-4 mouse thymoma cells = assay: Test on cell toxicity, MTT method, EL-4; type: cell-based; settings: 48 h, EL4 thymoma, two days incubation
Experimental: (§5) The inhibitory effect of sulphostin on the proliferation of tumor cells in vitro was investigated. The culture liquid used was a 10% FCS-containing RPMI1640 medium, and incubation was performed at 37° C. in 5% CO2-air. EL-4 mouse thymoma cells, Colon-26 mouse colon cancer cells and B16-BL6 mouse melanoma cells were incubated at 1×10^4 cells/well for two days, and then the number of cells was measured by the MTT method. Specifically, MTT (0.4% and 10 μL) was added to each cell culture, followed by incubating for four hours. Further, 20% sodium dodecyl sulphate (SDS) was added thereto in an amount of 100 μL, and each plate was measured for absorbance at 570 nm and 690 nm using a microplate reader. Sulphostin was added to the wells simultaneously with the initiation of the tumor cell incubation.

[4] = system: Colon-26 mouse colon cancer cells; assay: Test on cell toxicity, MTT method, Colon-26; type: cell-based; settings: Colon 26, 48 h, Colon26 colon cancer, two days incubation
Experimental: as §5

B16-BL6 melanoma cells = assay: Anti-tumor effect on B16-BL6 (Experimental Example 3), transplanted mice; type: in vivo, mouse; settings: tumor weight Day 21 vs control group
Experimental: as §1, §2
Five-week-old C57BL/6NCrj female mice were used for this test. The following three groups were provided: Group 1 in which physiological saline (solvent) was administered; Group 2 in which sulphostin was administered at a dose of 200 mg/kg; and Group 3 in which sulphostin was administered at a dose of 50 mg/kg. The number of animals was set to seven in Group 1 (control group) and to five in each of Groups 2 and 3 (drug administration groups).
On Day 0, 2×10^5 B16-BL6 melanoma cells were transplanted into the groin of the mice. Twenty four hours after transplantation, sulphostin was intraperitoneally administered to the mice at the above respective doses once in a day on Days 1 to 5, 7 to 12, and 14 to 19. In use, sulphostin was diluted with physiological saline to have an intended concentration. On Day 21, the tumor was taken out from each mouse and weighed, to thereby determine the effect of sulphostin.

[5] = system: B16-BL6 mouse melanoma cells; assay: Test on cell toxicity, MTT method, B16-BL6; type: cell-based; settings: 48 h, two days incubation
Experimental: as §5

[6] = 50 mg/kg intraperitoneal once a day from Day 1
[7] = 50 mg/kg intraperitoneal, six mice per group
[8] = 200 mg/kg intraperitoneal once a day from Day 1
[9] = 200 mg/kg intraperitoneal, six mice per group
[10] = 3.1 mg/kg intraperitoneal from Day 10, tumor weight Day 28 vs control group
[11] = 50 mg/kg intraperitoneal from Day 10, tumor weight Day 28 vs control group

## CC(C)[C@H](N)C(=O)N1CCC[C@H]1B(O)O [PT-100]
[1]; 50 mg/kg intraperitoneal
  hair loss by continuous administration: extremely observed throughout the body
[1]; [6]
  suppression rate: 66.7%
[1]; [7]
  tumor regression: the tumor was not regressed
[1]; 200 mg/kg intraperitoneal
  hair loss by continuous administration: extremely observed throughout the body
  loss of body weight by continuous administration: considerably observed
[1]; [8]
  suppression rate: 62.3%
[1]; [9]
  tumor regression: the tumor was not regressed
[2]; [10]
  suppression rate on tumor weight: 51.5%
[2]; [11]
  suppression rate on tumor weight: 70.8%

## C[C@H]1O[C@@H](n2cc(F)c(=O)[nH]c2=O)[C@H](O)[C@@H]1O [Furtulon, Doxifluridine]
[1]; 30 mg/kg oral
  tumor regression: the tumor was not regressed
[1]; 30 mg/kg oral once a day from Day 1
  suppression rate: 56.9%
[2]; 30 mg/kg oral from Day 10, tumor weight Day 28 vs control group
  suppression rate: 47.0%

## N[C@H]1CCCN([P@@](N)(=O)NS(=O)(=O)O)C1=O [Sulphostin, 3(S)-amino-1-((R)-amino(sulfoamino)phosphinyl)-2-piperidone]
[3]; 25 mg/kg per administration
  abnormalities during monitoring and in remarks after dissection: nor did they show any abnormalities
  Heart weight (Avg.): 118.3 mg
  Left kidney weight (Avg.): 204.7 mg
  Liver weight (Avg.): 1769.3 mg
  Lung weight (Avg.): 182 mg
  Right kidney weight (Avg.): 210.3 mg
  Spleen weight (Avg.): 127.7 mg
  Thymus weight (Avg.): 63.7 mg
  change in body weight: did not decrease in body weight
[3]; 50 mg/kg per administration
  abnormalities during monitoring and in remarks after dissection: nor did they show any abnormalities
  Heart weight (Avg.): 120 mg
  Left kidney weight (Avg.): 202.3 mg
  Liver weight (Avg.): 1803.7 mg
  Lung weight (Avg.): 165.3 mg
  Right kidney weight (Avg.): 206.7 mg
  Spleen weight (Avg.): 141.7 mg
  Thymus weight (Avg.): 76 mg
  change in body weight: did not decrease in body weight
EL-4 mouse thymoma cells
  IC50: > 100 µg/mL
[4]
  IC50: > 100 µg/mL
[1]; 50 mg/kg intraperitoneal
  hair loss by continuous administration: hardly observed
  loss of body weight by continuous administration: not observed
[1]; [6]
  suppression rate: 87.8%
[1]; [7]
  tumor regression: two out of six mice
[1]; 200 mg/kg intraperitoneal
  hair loss by continuous administration: hardly observed
  loss of body weight by continuous administration: not observed
[1]; [8]
  suppression rate: 91.7%
[1]; [9]
  tumor regression: two out of six mice
[2]; [10]
  suppression rate on tumor weight: 66.2%
[2]; [11]
  suppression rate on tumor weight: 87.3%
[2]; intraperitoneal from Day 10, dose not specified (groups 50 and 3.1 mg/kg)
  loss of body weight by continuous administration: not observed
B16-BL6 melanoma cells; [6]
  suppression rate: 53.3%
B16-BL6 melanoma cells; [8]
  suppression rate: 51.7%
[5]
  IC50: > 100 µg/mL
